Data from patent publication US6242235A, “Polymerase stabilization by polyethoxylated amine surfactants” (priority 1999, dated 2001).

Columns and labels:
[1] = target: T1, Taq polymerase (Thermus aquaticus, UniProt P19821); test: Half-life of Taq polymerase activity at 95° C. in surfactant solutions (3H-TTP incorporation); type: biochemical; conditions: incubated at 95° C.; for estimated half-life of Taq polymerase: Example 2: 0.1% surfactant, control without surfactant less than 5 min; for Taq polymerase half life: Example 7: 0.005% surfactant, 2.5 U/100 μl, estimated graphically
T1 sequence (P19821 whole entry): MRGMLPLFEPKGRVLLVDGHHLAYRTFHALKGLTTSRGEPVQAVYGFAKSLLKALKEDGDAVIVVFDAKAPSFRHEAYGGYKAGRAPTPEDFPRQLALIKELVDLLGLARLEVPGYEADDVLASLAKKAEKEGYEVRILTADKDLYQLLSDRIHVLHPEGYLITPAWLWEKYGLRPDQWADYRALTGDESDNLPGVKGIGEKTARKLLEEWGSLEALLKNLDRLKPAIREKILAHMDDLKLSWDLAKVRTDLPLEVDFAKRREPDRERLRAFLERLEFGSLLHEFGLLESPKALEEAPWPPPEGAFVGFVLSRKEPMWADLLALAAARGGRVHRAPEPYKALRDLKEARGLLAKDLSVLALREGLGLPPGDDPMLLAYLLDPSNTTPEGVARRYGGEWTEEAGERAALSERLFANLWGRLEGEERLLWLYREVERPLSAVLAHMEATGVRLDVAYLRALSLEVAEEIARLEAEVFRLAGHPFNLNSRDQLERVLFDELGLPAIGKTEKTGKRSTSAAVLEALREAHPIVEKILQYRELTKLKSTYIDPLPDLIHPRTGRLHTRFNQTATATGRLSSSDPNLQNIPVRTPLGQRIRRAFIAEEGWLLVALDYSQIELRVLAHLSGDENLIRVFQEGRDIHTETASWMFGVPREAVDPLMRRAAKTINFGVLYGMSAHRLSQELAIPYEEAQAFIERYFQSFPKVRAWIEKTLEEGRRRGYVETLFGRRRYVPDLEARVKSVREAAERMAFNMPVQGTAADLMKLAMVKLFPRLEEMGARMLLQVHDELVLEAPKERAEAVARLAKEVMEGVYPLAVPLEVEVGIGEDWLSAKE
Method: A 10× buffer was made with each of these surfactant solutions. The 10× buffer for each consisted of: 500 mM KCl, 100 mM Tris-HCl pH 9.0 (at 25° C.), 1% surfactant (made by a 1:10 dilution of the detergent solution described above into the buffer during formulation). As described in Example 1, the Taq polymerase used in these experiments was purified without exposure to any detergents. Each of these buffer solutions was used to formulate a Taq-surfactant solution as follows: […]
A control solution was made as indicated above, except that the 32 μl of 10× buffer without surfactant was used. The solutions were incubated at 95° C. and samples (10 μl) were removed and placed in a fresh tube, and kept on ice at 0, 5, 10, 30, 60, 90, and 120 min. The samples were then assayed for Taq polymerase activity.
Taq polymerase activity was determined by measuring the amount of tritiated deoxynucleotide base a sample of the enzyme could incorporate. The assay was performed as follows. Solutions of dATP, dCTP, dGTP and dTTP (Promega U120, U122, U121 and U123, respectively) were diluted to 2 mM final concentration (originally at 100 mM) using nanopure water. Tritiated nucleotide ^3 H-TTP was obtained from Amersham (TRK424, 250 μCi/250 μl). The template for incorporation was calf thymus DNA (Sigma, D-1501) dissolved in 10 mM Tris-HCl pH 7.3, 5 mM MgCl2 to a final concentration of 2.5 mg/ml. Prior to use, the DNA was treated with 1 μl of a 1:10 dilution of RQ1 DNAse (Promega M610) (dilution made using 10 mM Tris-HCl, 5 mM MgCl2) and incubated for 10 min at 37° C. followed by 30 min at 68° C. This was done to "activate" the DNA for incorporation. A 10× Taq assay buffer was made containing 500 mM Tris-HCl (pH 9.0 at 25° C.), 500 mM NaCl, and 100 mM MgCl2.
Time point samples (10 μl) were added to 40 μl of the reaction mix and then incubated at 74° C. for 10 min. After incubation, the solution was diluted with 500 μl of ice cold 10% TCA. The TCA solution was filtered through a GF/A filter. The tube was washed three times with 1 ml of 5% TCA and the wash was then filtered onto the same filter. The filter was then rinsed 3 times with 5% TCA and then rinsed with acetone. The filters were dried 10 min. with a heat lamp and then the radioactivity was counted. The percent of activity present at any time point was determined by dividing the net counts for the sample at that time point by the net counts of the 0 min sample for that enzyme solution and then multiplying by 100%. The percent activity of the solution was plotted versus time. The points were then connected by a smooth curve and the estimated half-life of the enzyme under the conditions chosen was estimated based on the point where the line crossed 50% activity.
In this example, the ability of ethoxylated amines to stabilize thermostable proteins at high temperatures was examined. Solutions of detergent-free Taq polymerase (2.5 U/100 μl of solution) containing 0.005% Tomah E-18-15, Tomah E-18-5, Tween 20, NP-40, and TRITON X-100 were produced as in Example 2. These solutions were incubated at 95° C. and samples were removed at 0, 10, 30, 60 and 120 min and analyzed as in Example 2. The half lives of the enzyme in the presence of these surfactants was estimated graphically. The solutions containing Tomah E-18-5, TRITON X-100 and NP-40 all had Taq polymerase half lives of about 8 min.

[2] = McCutcheon's Volume 1: Emulsifiers and Detergents North American Edition, 1996; cited from earlier work
[3] = target: T1, Taq polymerase; test: PCR based assay for Taq polymerase stabilization by detergents (1.5 kb amplification product on agarose gel); type: biochemical; conditions: 2 μl Taq polymerase (10 U/μl)
Method: This Example describes the development of a PCR based assay for polymerase stabilization by detergents (i.e., surfactants). Conditions were defined in which the polymerase was incapable of producing a detectable amplification product in the absence of detergent, but could produce detectable amplification in the presence of a stabilizing detergent, such as Tween 20.
The following reaction mixture was assembled:
pGEM 1 uc (Part # E1541) and 25 mM MgCl2 (Part # M1902) were obtained from Promega Corp, Madison Wis. The 10× Taq buffer formulation was: 500 mM KCl, 100 mM Tris-Cl (pH 9.0 at 25° C.). The 10× Taq buffer was made by dissolving KCl and Trizma in nanopure water and adjusting the pH with concentrated hydrochloric acid. Nanopure water was made by autoclaving deionized water treated by a NANOPURE water system. The 2 mM dNTP mix was made by mixing 100 mM stocks of dATP, dCTP, dGTP, and dTTP (Promega U120, U122, U121 and U123, respectively) with nanopure water to produce a solution containing a 2 mM concentration of each nucleotide. The DNA sequences of the primers used were […] (SEQ ID NO: 1) and […] (SEQ ID NO 2).
One hundred microliters of the reaction mixture were placed into a 0.2 ml tube and 50 μl placed in five additional tubes. […]
The reaction products were analyzed by agarose gel electrophoresis. […]

Compound | estimated half-life of Taq polymerase [1] | Taq polymerase half life [1] | also measured
C[C@H](CCC(=O)NCCC[N+](C)(C)CCCS(=O)(=O)[O-])[C@H]1CC[C@H]2[C@@H]3[C@H](O)C[C@@H]4C[C@H](O)CC[C@]4(C)[C@H]3C[C@H](O)[C@]12C [Chaps] | approximately 5 min | – | –
TRITON X-100 | approximately 40 min | about 8 min | HLB Index [2]: 13.5
C[C@H](CCC(=O)NCCC[N+](C)(C)CC(O)CS(=O)(=O)[O-])[C@H]1CC[C@H]2[C@@H]3[C@H](O)C[C@@H]4C[C@H](O)CC[C@]4(C)[C@H]3C[C@H](O)[C@]12C (some centres unmarked) [Chapso] | approximately 5 min | – | –
CCCCCCCCCC[N+](C)(C)CCCS(=O)(=O)[O-] [N-decyl-n,n-dimethyl-3-ammonium-1-propanesulfonate] | – | – | 1.5 kb DNA band ([3]; Example 3, second set: 5 μl of 10% surfactant in 95 μl mix, no band without surfactant): failed to produce a visible 1.5 kb DNA fragment; 1.5 kb DNA band ([3]; Example 3: 1 μl of 10% surfactant in 99 μl mix, weaker but visible band without surfactant): band intermediate in intensity
ethoxylated alky phenol [NP-40] | – | about 8 min | –
